Earlier results as cited in US7226791B2, “Polynucleotides encoding novel guanylate binding proteins (GBP's)” (Bristol-Myers Squibb Company, priority 2003, dated 2007).

Target: T1, GBP-1 (Homo sapiens, UniProt P32455)
T1 sequence (P32455 1-592): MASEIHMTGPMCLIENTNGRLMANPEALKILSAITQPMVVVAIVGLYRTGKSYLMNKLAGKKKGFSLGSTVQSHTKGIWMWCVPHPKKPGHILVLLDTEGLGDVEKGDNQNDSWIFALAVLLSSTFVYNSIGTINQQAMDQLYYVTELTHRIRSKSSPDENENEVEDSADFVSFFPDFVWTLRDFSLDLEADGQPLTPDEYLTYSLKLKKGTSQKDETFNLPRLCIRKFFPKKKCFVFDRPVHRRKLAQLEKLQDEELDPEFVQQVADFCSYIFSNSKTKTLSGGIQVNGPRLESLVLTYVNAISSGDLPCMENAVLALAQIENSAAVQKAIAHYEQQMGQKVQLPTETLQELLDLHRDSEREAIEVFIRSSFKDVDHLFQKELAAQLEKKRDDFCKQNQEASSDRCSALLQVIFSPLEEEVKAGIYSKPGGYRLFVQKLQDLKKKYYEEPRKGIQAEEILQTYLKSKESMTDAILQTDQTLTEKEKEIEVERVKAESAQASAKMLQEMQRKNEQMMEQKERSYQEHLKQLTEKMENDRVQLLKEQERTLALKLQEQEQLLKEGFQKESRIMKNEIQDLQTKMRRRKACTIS
Settings: purified GBP-1 protein, GTP hydrolysis; read-out: Km for substrate; cited from earlier work

Nc1nc2c(ncn2[C@@H]2O[C@H](COP(=O)(O)OP(=O)(O)OP(=O)(O)O)[C@@H](O)[C@H]2O)c(=O)[nH]1 [GTP]
Km: 470 µM
